{"source": "patent US20140294856A1", "about": "“COMBINATION TREATMENT COMPRISING A HDAC6 INHIBITOR AND AN AKT INHIBITOR” (priority 2011, published 2014)", "key": {"A2780 cells": {"tested_on": "A2780 cells", "assay": "Growth inhibition (GI50)", "format": "cell-based, human"}, "[1]": {"assay": "Pharmacokinetics following a single injection", "format": "in vivo", "description": "FIG. 4. Pharmacokinetic profile of HDAC-C1A following a single injection at 20 mg/kg.\nFIG. 22 (Table 3): Pharmacokinetic data of HDAC-C1A following a single injection.\n(§1) The drug was stable after oral, parenteral and intravenous administration for 24 h (last time point examined). […] The Cma and AUC0-24h following i.p. injection (20 mg/kg) were 3.2 μg/mL and 11.2 μg/mL*h, respectively. […] The acid instability of HDAC-C1A could therefore be improved by enteric coating as a means to avoid breakdown in the stomach. […] HDAC-C1A was also tested in HCT116 human colon cancer xenograft model using a refined dose and scheduling. […] This dose was non-toxic (no reduction in body weight) (FIG. 5.D). The acetylated form of α-tubulin (biomarker of response to HDAC6 inhibition) could be observed after 14 days of treatment and could be detected as early as 6 hours after the 1st injection (FIG. 5.E.). The acetylated form of Histone 3 (biomarker of response of class I histones) could be observed as early as 2 hours after the 1st injection and remain after 14 days of treatment (FIG. 5.E)."}, "HCT116 xenograft [2]": {"tested_on": "HCT116 xenograft", "assay": "Biomarkers screening in HCT116 xenograft tumours", "format": "in vivo, mice", "description": "FIG. 5. Anti-tumour activity of HDAC-C1A in A2780 (A & B) and HCT116 (C & D) xenograft models (Tumours volumes relative to tumour volume at day 1 (A & C) and corresponding body weight (relative to body weight at day 1) (B & D)). E. Biomarkers screening at early time points following a single injection of HDAC-C1A in HCT116 xenograft at 40 mg/kg compared to a continuous 14 days treatment at the indicated dose. Tumours were excised 6 hours following the last injection.\nas §1"}, "HCT116 xenograft [3]": {"tested_on": "HCT116 xenograft", "assay": "[18F]FLT-PET tumour uptake", "format": "in vivo, mice", "description": "FIG. 6. [18F]-FLT uptake at 24 h and 48 h following a single injection I.P. of HDAC-C1A at 40 mg/kg in HCT116 xenograft model. A. PET/CT (bottom) and corresponding CT (top) images of the [18]-FLT uptake. […] The tumour is indicated by an arrow. B. Area under the curve data. The results are the mean+/−SEM of at least 4 animals per group.\nFIG. 13. […] A. relative tumour volume to day 1. […] B. Corresponding body weights throughout the course of the experiment. […] C. Time activity curve represent [18F]FLT uptake over 60 minutes. Results are mean of at least 3 animals. D. Area under the curve, [18F]FLT uptake in the tumour over 60 minutes. E. NUV60, [18F]FLT uptake in the tumour at 60 minutes. […] The levels of total AKT are represented as loading control.\nFIG. 16. [18F]FLT uptake following treatment with BEZ235 and in combination with HDAC-C1A after 48 hours in a HCT116 xenograft model. Mice were treated with either BEZ235 alone at 20 mg/kg/day for 2 days P.O., with 1HDACC1A at 20 mg/kg/day for 2 days I.P. or with a combination HDAC-C1A (20 mg/kg/day for 1 or 2 days)+BEZ-235 (20 mg/kg/day for 1 or 2 days). BEZ235 was given first and 30 min later, mice received an injection of HDAC-C1A. A. time activity curve represent [18F]FLT uptake over 60 minutes. Results are mean of at least 3 animals. B. Area under the curve, [18F]FLT uptake in the tumour over 60 minutes. C. NUV60, [18F]FLT uptake in the tumour at 60 minutes. D. Cross section (axial plane) of mice representative of different treatment cohorts. The top pictures show [18F]FLT uptake pictures (PET/CT), the bottom represent the corresponding CT scan. The arrows point the tumour.\nWe also assessed the potential of [^18F]fluorothymidine positron emission tomography ([^18F]FLT-PET) to measure early response to HDAC-C1A treatment in HCT116 xenograft bearing mice (FIG. 6). There was a 2-fold decrease in tumour [^18F]FLT uptake in animals treated continuously for 48 h compared to vehicle treated controls; the area under the normalized [^18F]FLT time versus activity curve was 117±6.9 before treatment and decreased to 106±5.5 (P=0.02) at 24 hours and 54±5 (P=0.0001) at 48 hours after initiating treatment (FIG. 6.B).\nThe efficacy of the combination HDAC-C1A (20 mg/kg/day) and BEZ235 ([…]) could be monitored with [^18F]FLT-PET in HCT116 tumour bearing mice as early as 24H-48H. There was a 1.7-fold decrease in tumour [^18F]FLT uptake in animals treated continuously for 24 h-48 h compared to vehicle treated controls; the area under the normalized [^18F]FLT time versus activity curve was 542±17 before treatment and decreased to 312±22 (P=0.0002) at 24-48 hours after initiating treatment (FIG. 16.B)."}, "[4]": {"tested_on": "CHO cells deficient in DNA repair", "assay": "Growth inhibition in cell lines deficient in DNA repair machinery", "format": "cell-based"}, "A2780": {"tested_on": "A2780", "assay": "Phospho-AKT levels by western blotting", "format": "cell-based, human", "conditions": "ovarian cancer cell line A2780"}, "Ishikawa": {"tested_on": "Ishikawa", "assay": "Phospho-AKT levels by western blotting", "format": "cell-based", "conditions": "endometrial cancer cell line Ishikawa (PTEN-null)"}, "caco-2 cells": {"tested_on": "caco-2 cells", "assay": "caco-2 transwell permeability assay"}, "[5]": {"conditions": "homologous recombination repair"}}}
{"molecule": "CC(/C=C/C(=O)NO)=C\\c1ccc(NS(=O)(=O)c2ccc(N(CCCl)CCCl)cc2)cc1", "note": "[HDAC-C1A]", "values": [{"measurement": "GI50", "setting": "A2780 cells", "result": 700, "unit": "nM"}, {"measurement": "AUC0-24h", "setting": "[1]; given orally", "result": 94000, "unit": "ng·h/mL"}, {"measurement": "Cmax", "setting": "[1]; given orally", "result": 700, "unit": "ng/mL"}, {"measurement": "AUC0-24h", "setting": "[1]; i.p. injection 20 mg/kg", "result": 11200, "unit": "ng·h/mL"}, {"measurement": "Cmax", "setting": "[1]; i.p. injection 20 mg/kg", "result": 3200, "unit": "ng/mL"}, {"measurement": "dose proportionality of pharmacokinetics", "setting": "[1]; i.p. injection, up to 160 mg/kg", "result": "dose proportionate"}, {"measurement": "oral bioavailability", "setting": "[1]; in vivo, po", "result": 16, "unit": "%"}, {"measurement": "stability after administration", "setting": "[1]; oral, parenteral and intravenous, 24 h last time point", "result": "stable"}, {"measurement": "anti-apoptotic factor Bcl2", "setting": "HCT116 xenograft [2]; after 48 hours", "result": "down-regulated"}, {"measurement": "earliest detection of acetylated Histone 3 after 1st injection", "setting": "HCT116 xenograft [2]; single injection 40 mg/kg", "result": 2, "unit": "h"}, {"measurement": "earliest detection of acetylated α-tubulin after 1st injection", "setting": "HCT116 xenograft [2]; single injection 40 mg/kg", "result": 6, "unit": "h"}, {"measurement": "[18F]FLT-PET in comparison to control animals", "setting": "HCT116 xenograft [3]; 48 H, HDAC-C1A 40 mg/kg combined with API-2 1 mg/kg", "result": "unremarkable"}, {"measurement": "area under the normalized [18F]FLT time versus activity curve", "setting": "HCT116 xenograft [3]; 24 hours after initiating treatment, 117±6.9 before treatment", "result": "106±5.5"}, {"measurement": "area under the normalized [18F]FLT time versus activity curve", "setting": "HCT116 xenograft [3]; 48 hours after initiating treatment, 117±6.9 before treatment", "result": "54±5"}, {"measurement": "fold decrease in tumour [18F]FLT uptake vs vehicle", "setting": "HCT116 xenograft [3]; HDAC-C1A 20 mg/kg/day combined with BEZ235 25 mg/kg/day, 24 h-48 h", "result": 1.7, "unit": "fold"}, {"measurement": "area under the normalized [18F]FLT time versus activity curve", "setting": "HCT116 xenograft [3]; HDAC-C1A combined with BEZ235, 24-48 hours, 542±17 before treatment", "result": "312±22"}, {"measurement": "fold decrease in tumour [18F]FLT uptake vs vehicle", "setting": "HCT116 xenograft [3]; treated continuously for 48 h, 40 mg/kg", "result": 2, "unit": "fold"}, {"measurement": "sensitivity (GI50 ratio) of cells deficient in XRCC3 vs proficient", "setting": "[4]; [5]", "result": "as sensitive as the parental proficient cell lines"}, {"measurement": "sensitivity (GI50 ratio, fold) of cells deficient in XRCC2 vs proficient", "setting": "[4]; [5]", "result": "as sensitive as the parental proficient cell lines"}, {"measurement": "sensitivity (GI50 ratio, fold) of cells deficient in XRCC5 vs proficient", "setting": "[4]; non homologous end joining", "result": "as sensitive as the parental proficient cell lines"}, {"measurement": "sensitivity (GI50 ratio) of cells deficient in ERCC1 vs proficient", "setting": "[4]; nucleotide excision repair", "result": "as sensitive as the parental proficient cell lines"}, {"measurement": "sensitivity of cells deficient in XPB vs proficient", "setting": "[4]; nucleotide excision repair", "result": "as sensitive as the parental proficient cell lines"}, {"measurement": "P-AKT levels", "setting": "A2780", "result": "increased"}, {"measurement": "P-AKT levels increased", "setting": "Ishikawa", "result": "not"}, {"measurement": "permeability across caco-2 cells", "setting": "caco-2 cells; Caco-2", "result": "relatively good permeability"}, {"measurement": "substrate of the ABC transporters", "setting": "caco-2 cells; Caco-2", "result": "non substrate"}, {"measurement": "permeability (PappA-B)", "setting": "caco-2 cells; caco-2 cells", "result": 5.1, "unit": "×10⁻⁶ cm/s"}, {"measurement": "PappB-A/PappA-B ratio", "setting": "caco-2 cells; ratio greater than 3 = actively effluxed", "result": 2.8}]}
